The values that follow come from patent US9518022B2, “Anti-HIV compounds” (priority 2014, dated 2016).

A short description of the first data set: Cytotoxicity assay (AlamarBlue) in mock infected MT-2 cells. The class given is cell-based. The following applies: human. Here is the method:
The present assay was used to screen candidate antiviral compounds by quantification of virus spread and production over several rounds of infection in vitro. MT-2, a HIV-1 permissive human T-cell line, was seeded in microtiter plates and was simultaneously treated with serially diluted compound and inoculated with a HIV-1 NL4-3 viral clone engineered to express Renilla luciferase in place of Nef. Following treatment, the culture was incubated for 96 hours. After the incubation, media was collected and used to estimate relative infectivity on the indicator cell line, TZM-bl. Additionally, viral spread was quantified by measuring luciferase activity via a commercially available luciferase substrate. In parallel, MT-2 cells were seeded and inoculated with mock virus in the presence of serially diluted compound. Compound toxicity was quantified 96 hours after treatment with AlamarBlue.
MT-2 (NIH Aids reagent program 237) cells were grown and maintained in an incubator at 37° C. with 5% CO2 using a basal medium of RPMI-1640 supplemented with 10% FBS. Cells were seeded in 100 μl at 2×10^4 cells/well in white walled 96-well microtiter plates. Candidate compounds were 3-fold serially diluted in the appropriate solvent. Solvent without compound was used as a no drug reference. Cells were inoculated at a multiplicity of 0.027 with an HIV-1 NL4-3 virus stock engineered to express Renilla luciferase in place of Nef. Diluted virus stock was first added to serially diluted compound. Compound and virus were delivered to cells in an equal volume (100 μl) and treated cultures were returned to the incubator for 96 hours. In parallel, plates for cytotoxicity estimates were prepared in the same way except cells were plated in clear walled 96-well microtiter plates and were mock infected.
At 96 hours post treatment, 20 μl AlamarBlue proliferation reagent was added to 200 μl treated and mock infected cultures and incubated for 3 hours at 37° C. with 5% CO2 then read at 545, 590 nm on fluorescence plate reader (Biotek).
For all assays, data was imported into Accelrys Assay Explorer 3.3. In Assay Explorer, % inhibition (antiviral or cytotoxicity) was calculated using the solvent control as a reference by the following equation: 1−(SignalCompound/SignalReference). The % Inhibition and compound concentration data was fitted using the following 4-parameter logistic model (Assay Explorer model 42):
[formula] where X is compound concentration, Y is % inhibition, D is the maximum % Inhibition (constrained to 100%), C is IC50 value or inflection point, B is the hill slope, and A is the minimum % inhibition (constrained to 0%). The IC50 value is reported as the EC50 or CC50 depending on the assay endpoint. EC50 represents the effective concentration at which virus replication is inhibited by 50 percent. CC50 represents the concentration that results in the death of 50 percent of the host cells. The selectivity or therapeutic index (SI or TI), is the ratio of CC50 over EC50 and represents the relative effectiveness in inhibiting viral replication compared to inducing cell death.
(In general: Resazurin is reduced to fluorescent resorufin, in cell work by metabolically active cells.)
For `COc1cc2c(cc1OCc1ccccc1)CCNC2/C=C/c1ccc(OC)c2ccoc12` (centres unmarked) [Example AO, 6-Benzyloxy-7-methoxy-1-[(E)-2-(4-methoxybenzofuran-7-yl)vinyl]-1,2,3,4-tetrahydroisoquinoline], the midpoint of cytotoxicity, the CC50 at 96 h, lay at 9.94 µM.

Regarding `COc1cc2c(cc1OCc1ccccc1)CCNC2/C=C/c1ccc(N2CCCCC2)cc1` (centres unmarked) [EA, 6-(benzyloxy)-7-methoxy-1-[(E)-2-[4-(piperidin-1-yl)phenyl]ethenyl]-1,2,3,4-tetrahydroisoquinoline], the CC50 (in general, the concentration at which the toxic effect on the cells reaches its halfway point) at 96 h came out at 4.8 µM.

As for `COc1cc2c(cc1OCc1ccccc1)CCNC2/C=C/c1ccc(S(C)(=O)=O)cc1` (centres unmarked) [BZ, 6-(benzyloxy)-1-[(E)-2-(4-methanesulfonylphenyl)ethenyl]-7-methoxy-1,2,3,4-tetrahydroisoquinoline], half-maximal cytotoxicity (CC50 at 96 h) was put at 1 µM.

`COc1cc2c(cc1OCc1ccccc1)CCNC2/C=C/c1ccc2c(c1)OC(F)(F)O2` (centres unmarked) [DF, 6-(benzyloxy)-1-[(E)-2-(2,2-difluoro-2H-1,3-benzodioxol-5-yl)ethenyl]-7-methoxy-1,2,3,4-tetrahydroisoquinoline] returned a CC50 at 96 h of 10 µM.

Regarding `COc1cc2c(cc1OCc1ccccc1)CCNC2/C=C/c1c(C)ccc2c1OCCC2` (centres unmarked) [CC, 6-(benzyloxy)-7-methoxy-1-[(E)-2-(7-methyl-3,4-dihydro-2H-1-benzopyran-8-yl)ethenyl]-1,2,3,4-tetrahydroisoquinoline], the midpoint of cytotoxicity, the CC50 at 96 h, lay at 5.44 µM.

In the case of `CCCCN1CCc2cc(OC)c(OCc3ccccc3)cc2C1/C=C/c1ccc(OCc2ccccc2)c(OC)c1` (centres unmarked) [Example D, 7-Benzyloxy-1-[(E)-2-(4-benzyloxy-3-methoxy-phenyl)vinyl]-2-butyl-6-methoxy-3,4-dihydro-1H-isoquinoline], the CC50 at 96 h is > 10 µM.

The compound `COc1cc2c(cc1OCc1ccccc1)CCNC2/C=C/c1cccc2c1OCCC2` (centres unmarked) [CF, 6-(benzyloxy)-1-[(E)-2-(3,4-dihydro-2H-1-benzopyran-8-yl)ethenyl]-7-methoxy-1,2,3,4-tetrahydroisoquinoline] yielded a CC50 at 96 h of 9.1 µM.

Take `COc1cc2c(cc1OCc1ccccc1)CCNC2/C=C/c1cc(OCc2ccccc2)ccc1C` (centres unmarked) [Example AD, 6-benzyloxy-1-[(E)-2-(5-benzyloxy-2-methyl-phenyl)vinyl]-7-methoxy-1,2,3,4-tetrahydroisoquinoline]: it took 3.22 µM to reach half-maximal cytotoxicity (CC50 at 96 h).

On to `COCCCCOc1cc(OC)ccc1/C=C/C1NCCc2cc(OCc3ccccc3)c(OC)cc21` (centres unmarked) [Example AI, (E)-6-(benzyloxy)-7-methoxy-1-(4-methoxy-2-(4-methoxybutoxy)styryl)-1,2,3,4-tetrahydroisoquinoline], for which the CC50 at 96 h was found to be 5.6 µM.

For the compound `COc1cc2c(cc1OCc1ccccc1)CCNC2/C=C/c1ccccc1` (centres unmarked) [BI, 6-(benzyloxy)-7-methoxy-1-[(E)-2-phenylethenyl]-1,2,3,4-tetrahydroisoquinoline], the CC50 at 96 h was found to be 10 µM.

In turn, `COc1cc2c(cc1OCc1ccccc1)CCNC2/C=C/c1ccccc1NC(=O)OC(C)(C)C` (centres unmarked) [CW, tert-butyl N-{2-[(E)-2-[6-(benzyloxy)-7-methoxy-1,2,3,4-tetrahydroisoquinolin-1-yl]ethenyl]phenyl}carbamate] returned a CC50 at 96 h of 23.6 µM.

The compound `COc1cc2c(cc1OCc1ccccc1)CCNC2/C=C/c1ccccc1N(C)C` (centres unmarked) [DC, 2-[(E)-2-[6-(benzyloxy)-7-methoxy-1,2,3,4-tetrahydroisoquinolin-1-yl]ethenyl]-N,N-dimethylaniline] gave a CC50 at 96 h of 10 µM.

Take `COc1cc(C)c(/C=C/C2c3cc(OC)c(OCc4ccccc4)cc3CCN2C(=O)c2ccncc2)cc1OCc1ccccc1` (centres unmarked) [Example U, [6-benzyloxy-1-[(E)-2-(5-benzyloxy-4-methoxy-2-methyl-phenyl)vinyl]-7-methoxy-3,4-dihydro-1H-isoquinolin-2-yl]-(4-pyridyl)methanone]: the CC50 at 96 h is > 100 µM.

`COc1cc2c(cc1OCc1ccccc1)CCNC2/C=C/c1ccc(-c2cccnc2)cc1` (centres unmarked) [DJ, 6-(benzyloxy)-7-methoxy-1-[(E)-2-[4-(pyridin-3-yl)phenyl]ethenyl]-1,2,3,4-tetrahydroisoquinoline] displayed a CC50 at 96 h of 5.86 µM.

In turn, `COc1cc2c(cc1OCc1ccccc1)CCNC2/C=C/c1ccccc1C(F)(F)F` (centres unmarked) [DA, 6-(benzyloxy)-7-methoxy-1-[(E)-2-[2-(trifluoromethyl)phenyl]ethenyl]-1,2,3,4-tetrahydroisoquinoline] had a CC50 at 96 h of 10 µM.

`COc1cc2c(cc1OCc1ccccc1)CCNC2/C=C/c1cccc(OCc2ccccc2)c1` (centres unmarked) [BK, 6-(benzyloxy)-1-[(E)-2-[3-(benzyloxy)phenyl]ethenyl]-7-methoxy-1,2,3,4-tetrahydroisoquinoline] returned a CC50 at 96 h of 4 µM.

In turn, `COc1ccc(/C=C/C2NCCc3cc(OCc4ccccc4)c(OC)cc32)cc1OC` (centres unmarked) [BQ, 6-(benzyloxy)-1-[(E)-2-(3,4-dimethoxyphenyl)ethenyl]-7-methoxy-1,2,3,4-tetrahydroisoquinoline] had a CC50 at 96 h of 8.7 µM.

`CCOC(=O)c1coc(-c2ccc(/C=C/C3NCCc4cc(OCc5ccccc5)c(OC)cc43)cc2)n1` (centres unmarked) [EE, ethyl 2-{4-[(E)-2-[6-(benzyloxy)-7-methoxy-1,2,3,4-tetrahydroisoquinolin-1-yl]ethenyl]phenyl}-1,3-oxazole-4-carboxylate] yielded a CC50 at 96 h of 5.9 µM.

Compound `COc1cc2c(cc1OCc1ccccc1)CCNC2/C=C/c1cccc(C(F)(F)F)c1` (centres unmarked) [DB, 6-(benzyloxy)-7-methoxy-1-[(E)-2-[3-(trifluoromethyl)phenyl]ethenyl]-1,2,3,4-tetrahydroisoquinoline] came in with a CC50 at 96 h of 10 µM.

With `COC(=O)N1CCc2cc(OCc3ccccc3)c(OC)cc2C1/C=C/c1ccc(OC)c(OCc2ccccc2)c1` (centres unmarked) [Example L, Methyl 6-benzyloxy-1-[(E)-2-(3-benzyloxy-4-methoxy-phenyl)vinyl]-7-methoxy-3,4-dihydro-1H-isoquinoline-2-carboxylate], the CC50 at 96 h was > 20 µM.

In the case of `COc1cc(/C=C/C2NCCc3cc(OCc4ccccc4)c(OC)cc32)cc(OC)c1` (centres unmarked) [AT, 6-(benzyloxy)-1-[(E)-2-(3,5-dimethoxyphenyl)ethenyl]-7-methoxy-1,2,3,4-tetrahydroisoquinoline], it took 4.85 µM to reach half-maximal cytotoxicity (CC50 at 96 h).

`COc1cc(F)c(/C=C/C2NCCc3cc(OCc4ccccc4)c(OC)cc32)c(F)c1` (centres unmarked) [BU, 6-(benzyloxy)-1-[(E)-2-(2,6-difluoro-4-methoxyphenyl)ethenyl]-7-methoxy-1,2,3,4-tetrahydroisoquinoline] registered a CC50 at 96 h of 10.6 µM.

Turning to `COc1cc2c(cc1OCc1ccccc1)CCNC2/C=C/c1ccc(-n2cncn2)cc1` (centres unmarked) [DT, 6-(benzyloxy)-7-methoxy-1-[(E)-2-[4-(1H-1,2,4-triazol-1-yl)phenyl]ethenyl]-1,2,3,4-tetrahydroisoquinoline], the CC50 at 96 h is 7.39 µM.

The compound `COc1cc2c(cc1OCc1ccccc1)CCNC2/C=C/c1sccc1C` (centres unmarked) [BS, 6-(benzyloxy)-7-methoxy-1-[(E)-2-(3-methylthiophen-2-yl)ethenyl]-1,2,3,4-tetrahydroisoquinoline] displayed a CC50 at 96 h of 11.3 µM.

`COc1cc(C)c(/C=C/C2=NCCc3cc(OCc4ccccc4)c(OC)cc32)cc1OCc1ccccc1` [Example AE, 6-benzyloxy-1-[(E)-2-(5-benzyloxy-4-methoxy-2-methyl-phenyl)vinyl]-7-methoxy-3,4-dihydroisoquinoline] returned a CC50 at 96 h of 33.5 µM.

For the compound `COc1cc(C)c(/C=C/C2c3cc(OC)c(OCc4ccccc4)cc3CCN2C(=O)NC(C)(C)C)cc1OCc1ccccc1` (centres unmarked) [Example O, 6-benzyloxy-1-[(E)-2-(5-benzyloxy-4-methoxy-2-methyl-phenyl)vinyl]-N-tert-butyl-7-methoxy-3,4-dihydro-1H-isoquinoline-2-carboxamide], the CC50 at 96 h was > 10 µM.

As to `COc1ccc(/C=C/C2NCCc3cc(OCc4ccccc4)c(OC)cc32)c(C)c1` (centres unmarked) [Example AG, 6-benzyloxy-7-methoxy-1-[(E)-2-(4-methoxy-2-methyl-phenyl)vinyl]-1,2,3,4-tetrahydroisoquinoline], the CC50 at 96 h was found to be 9.83 µM.

On to `COc1cc2c(cc1OCc1ccccc1)CCNC2/C=C/c1cc2c(cc1C)OCCO2` (centres unmarked) [BC, 6-(benzyloxy)-7-methoxy-1-[(E)-2-(7-methyl-2,3-dihydro-1,4-benzodioxin-6-yl)ethenyl]-1,2,3,4-tetrahydroisoquinoline], for which the midpoint of cytotoxicity, the CC50 at 96 h, lay at 2.43 µM.

Staying with this data set, now noted: human; mock infected MT-2 cells, 96 hours, AlamarBlue; read-out: CC50.
Turning to `COc1ccc(/C=C/C2NCCc3cc(OCc4ccccc4)c(OC)cc32)cn1` (centres unmarked) [AX, 6-benzyloxy-7-methoxy-1-[(E)-2-(6-methoxy-3-pyridyl)vinyl]-1,2,3,4-tetrahydroisoquinoline], the CC50 at 96 h turned out to be 11.4 µM.
